Source: ChEMBL document CHEMBL5154755, “Discovery of Novel Indazoles as Potent and Selective PI3Kδ Inhibitors with High Efficacy for Treatment of Hepatocellular Carcinoma” (J Med Chem, 2022)

target: Phosphatidylinositol 4,5-bisphosphate 3-kinase catalytic subunit beta isoform (Homo sapiens, UniProt P42338); experiment: Inhibition of PI3Kbeta (unknown origin) using PIP2 as substrate incubated for 1 hr in presence of ATP by ADP-Glo assay; conditions: not given
Sequence (P42338 whole entry, canonical isoform): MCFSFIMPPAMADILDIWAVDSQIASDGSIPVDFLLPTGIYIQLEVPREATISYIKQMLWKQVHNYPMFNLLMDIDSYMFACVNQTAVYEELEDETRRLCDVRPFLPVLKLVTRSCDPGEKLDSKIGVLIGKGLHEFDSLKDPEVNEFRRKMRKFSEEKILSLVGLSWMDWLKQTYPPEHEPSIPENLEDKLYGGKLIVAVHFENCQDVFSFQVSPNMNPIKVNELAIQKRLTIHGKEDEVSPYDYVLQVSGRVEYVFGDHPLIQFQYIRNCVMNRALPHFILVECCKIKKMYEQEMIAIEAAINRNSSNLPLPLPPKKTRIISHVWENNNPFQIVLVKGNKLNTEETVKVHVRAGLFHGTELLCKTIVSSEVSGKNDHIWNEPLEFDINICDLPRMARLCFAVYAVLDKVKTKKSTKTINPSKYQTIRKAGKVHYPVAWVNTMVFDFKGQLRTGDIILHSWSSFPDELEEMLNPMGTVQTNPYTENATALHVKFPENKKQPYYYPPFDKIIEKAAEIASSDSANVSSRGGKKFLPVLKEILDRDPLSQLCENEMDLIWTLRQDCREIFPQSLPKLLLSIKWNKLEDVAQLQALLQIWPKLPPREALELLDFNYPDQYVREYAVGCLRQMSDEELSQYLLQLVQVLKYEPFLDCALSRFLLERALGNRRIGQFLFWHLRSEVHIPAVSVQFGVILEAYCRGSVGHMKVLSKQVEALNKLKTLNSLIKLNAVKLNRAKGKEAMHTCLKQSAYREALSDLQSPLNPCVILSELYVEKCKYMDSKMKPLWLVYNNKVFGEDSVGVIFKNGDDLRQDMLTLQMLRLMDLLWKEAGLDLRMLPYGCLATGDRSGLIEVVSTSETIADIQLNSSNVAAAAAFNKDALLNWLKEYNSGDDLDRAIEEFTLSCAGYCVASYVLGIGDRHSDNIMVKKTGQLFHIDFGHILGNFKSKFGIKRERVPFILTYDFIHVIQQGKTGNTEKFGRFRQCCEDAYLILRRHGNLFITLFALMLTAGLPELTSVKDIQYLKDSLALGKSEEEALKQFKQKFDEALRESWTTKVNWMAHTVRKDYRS

| IC50 | Structure (SMILES) |
| --- | --- |
| 0.031 µM | CC[C@H](Nc1nc(N)nc(N)c1C#N)c1nn(-c2cccnc2)c2cc(Cl)ccc12 |

system: Hep 3B2; experiment: cells; conditions: Homo sapiens, Hep3B, 72 h, read-out: INH

| Structure (SMILES) | inhibition at 10 µM |
| --- | --- |
| C[C@H](Nc1ncnc2[nH]cnc12)c1nn(-c2ccc(C#N)cc2)c2cc(F)ccc12 | 46% |
| C[C@H](Nc1ncnc2[nH]cnc12)c1nn(-c2cccnc2)c2ccc(F)cc12 | 13% |
| CC[C@H](Nc1nc(N)nc(N)c1C#N)c1nn(-c2cccnc2)c2cc(Cl)ccc12 | 56% |

target: Phosphatidylinositol 4,5-bisphosphate 3-kinase catalytic subunit alpha isoform (Homo sapiens, UniProt P42336); experiment: Inhibition of PI3Kalpha (unknown origin) using PIP2 as substrate incubated for 1 hr in presence of ATP by ADP-Glo assay; conditions: not given
Sequence (P42336 whole entry, canonical isoform): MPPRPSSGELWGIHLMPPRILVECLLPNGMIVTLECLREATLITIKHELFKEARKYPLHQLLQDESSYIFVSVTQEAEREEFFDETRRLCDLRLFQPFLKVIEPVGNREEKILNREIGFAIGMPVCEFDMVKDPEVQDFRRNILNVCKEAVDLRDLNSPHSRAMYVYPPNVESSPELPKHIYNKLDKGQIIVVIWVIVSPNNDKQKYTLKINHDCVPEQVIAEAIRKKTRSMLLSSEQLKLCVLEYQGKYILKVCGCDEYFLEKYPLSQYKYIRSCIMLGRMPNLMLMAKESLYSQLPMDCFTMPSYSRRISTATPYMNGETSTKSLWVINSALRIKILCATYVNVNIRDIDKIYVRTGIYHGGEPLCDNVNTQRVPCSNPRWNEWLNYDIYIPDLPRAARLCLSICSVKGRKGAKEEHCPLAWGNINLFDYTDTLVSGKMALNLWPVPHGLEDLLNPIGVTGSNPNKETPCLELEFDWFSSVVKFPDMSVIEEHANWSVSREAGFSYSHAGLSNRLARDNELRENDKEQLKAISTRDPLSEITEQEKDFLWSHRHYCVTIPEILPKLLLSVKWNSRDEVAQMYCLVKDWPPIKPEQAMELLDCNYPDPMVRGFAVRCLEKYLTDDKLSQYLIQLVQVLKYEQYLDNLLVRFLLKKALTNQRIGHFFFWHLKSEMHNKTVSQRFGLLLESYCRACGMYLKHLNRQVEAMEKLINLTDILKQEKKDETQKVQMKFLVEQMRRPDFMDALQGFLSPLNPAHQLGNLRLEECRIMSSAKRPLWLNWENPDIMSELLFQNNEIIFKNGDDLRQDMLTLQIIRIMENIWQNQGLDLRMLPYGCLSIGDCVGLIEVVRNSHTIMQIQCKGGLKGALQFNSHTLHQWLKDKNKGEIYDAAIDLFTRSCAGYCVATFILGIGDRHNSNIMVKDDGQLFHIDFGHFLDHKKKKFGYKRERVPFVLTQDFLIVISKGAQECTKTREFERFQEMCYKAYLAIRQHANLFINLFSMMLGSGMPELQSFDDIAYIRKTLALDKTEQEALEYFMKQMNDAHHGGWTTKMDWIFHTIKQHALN

| IC50 | Structure (SMILES) |
| --- | --- |
| 0.576 µM | CC[C@H](Nc1nc(N)nc(N)c1C#N)c1nn(-c2cccnc2)c2cc(Cl)ccc12 |

target: T1, Phosphatidylinositol 4,5-bisphosphate 3-kinase catalytic subunit delta isoform (Homo sapiens, UniProt O00329); experiment: Inhibition of PI3Kdelta (unknown origin) using PIP2 as substrate incubated for 1 hr in presence of ATP by ADP-Glo assay; conditions: not given
T1 sequence (O00329 whole entry): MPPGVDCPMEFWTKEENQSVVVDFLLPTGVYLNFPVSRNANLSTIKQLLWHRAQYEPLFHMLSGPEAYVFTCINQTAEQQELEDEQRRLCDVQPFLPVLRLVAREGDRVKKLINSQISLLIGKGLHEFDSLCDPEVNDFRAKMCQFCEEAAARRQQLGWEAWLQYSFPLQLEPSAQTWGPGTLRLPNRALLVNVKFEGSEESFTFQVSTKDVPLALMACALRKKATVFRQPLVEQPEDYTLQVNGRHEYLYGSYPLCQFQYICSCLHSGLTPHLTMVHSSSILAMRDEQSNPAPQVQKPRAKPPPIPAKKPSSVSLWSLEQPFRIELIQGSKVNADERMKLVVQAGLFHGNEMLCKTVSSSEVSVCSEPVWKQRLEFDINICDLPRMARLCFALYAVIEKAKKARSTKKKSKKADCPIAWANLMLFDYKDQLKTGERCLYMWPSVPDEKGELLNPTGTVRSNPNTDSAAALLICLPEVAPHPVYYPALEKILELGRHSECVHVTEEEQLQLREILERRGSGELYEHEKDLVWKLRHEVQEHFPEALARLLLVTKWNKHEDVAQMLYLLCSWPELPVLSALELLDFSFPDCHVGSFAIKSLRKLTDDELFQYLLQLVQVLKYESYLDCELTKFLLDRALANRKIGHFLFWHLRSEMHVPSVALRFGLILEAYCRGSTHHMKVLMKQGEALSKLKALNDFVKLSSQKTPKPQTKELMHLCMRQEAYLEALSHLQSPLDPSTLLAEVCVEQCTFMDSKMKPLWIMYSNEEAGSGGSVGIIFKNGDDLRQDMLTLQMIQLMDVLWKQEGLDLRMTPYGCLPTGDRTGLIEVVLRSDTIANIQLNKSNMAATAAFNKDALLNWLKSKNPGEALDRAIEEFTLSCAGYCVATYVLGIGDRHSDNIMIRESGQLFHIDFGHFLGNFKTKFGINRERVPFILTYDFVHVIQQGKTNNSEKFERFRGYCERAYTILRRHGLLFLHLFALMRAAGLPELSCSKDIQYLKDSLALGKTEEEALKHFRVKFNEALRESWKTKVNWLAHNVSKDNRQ

| IC50 | Structure (SMILES) |
| --- | --- |
| 0.22 µM | C[C@H](Nc1ncnc2[nH]cnc12)c1nn(-c2ccc(C#N)cc2)c2cc(F)ccc12 |
| 0.101 µM | C[C@H](Nc1ncnc2[nH]cnc12)c1nn(-c2cccnc2)c2ccc(F)cc12 |
| 0.0012 µM | CC[C@H](Nc1nc(N)nc(N)c1C#N)c1nn(-c2cccnc2)c2cc(Cl)ccc12 |

system: Hep 3B2; experiment: Antiproliferative activity against human Hep3B cells assessed as inhibition of cell growth incubated for 72 hrs by SRB assay; assay type: functional, cell-based; conditions: not given

| Structure (SMILES) | IC50 |
| --- | --- |
| C[C@H](Nc1ncnc2[nH]cnc12)c1nn(-c2ccc(C#N)cc2)c2cc(F)ccc12 | 13.5 µM |
| C[C@H](Nc1ncnc2[nH]cnc12)c1nn(-c2cccnc2)c2ccc(F)cc12 | 40.1 µM |
| CC[C@H](Nc1nc(N)nc(N)c1C#N)c1nn(-c2cccnc2)c2cc(Cl)ccc12 | 12.1 µM |

system: Bel-7402; experiment: cells; conditions: Homo sapiens, Bel-7402, 72 h, read-out: INH

| Structure (SMILES) | inhibition at 10 µM |
| --- | --- |
| C[C@H](Nc1ncnc2[nH]cnc12)c1nn(-c2ccc(C#N)cc2)c2cc(F)ccc12 | 0% |
| C[C@H](Nc1ncnc2[nH]cnc12)c1nn(-c2cccnc2)c2ccc(F)cc12 | -22% |
| CC[C@H](Nc1nc(N)nc(N)c1C#N)c1nn(-c2cccnc2)c2cc(Cl)ccc12 | 56% |

system: HepG2; experiment: cells; conditions: Homo sapiens, HepG2, 72 h, read-out: INH

| Structure (SMILES) | inhibition at 10 µM |
| --- | --- |
| C[C@H](Nc1ncnc2[nH]cnc12)c1nn(-c2ccc(C#N)cc2)c2cc(F)ccc12 | 57% |
| C[C@H](Nc1ncnc2[nH]cnc12)c1nn(-c2cccnc2)c2ccc(F)cc12 | 8% |
| CC[C@H](Nc1nc(N)nc(N)c1C#N)c1nn(-c2cccnc2)c2cc(Cl)ccc12 | 59% |

system: Bel-7402; experiment: Antiproliferative activity against human Bel-7402 cells assessed as inhibition of cell growth incubated for 72 hrs by SRB assay; assay type: functional, cell-based; conditions: Bel-7402, 72 h

| IC50 | Structure (SMILES) |
| --- | --- |
| 31.5 µM | C[C@H](Nc1ncnc2[nH]cnc12)c1nn(-c2ccc(C#N)cc2)c2cc(F)ccc12 |
| 31.9 µM | C[C@H](Nc1ncnc2[nH]cnc12)c1nn(-c2cccnc2)c2ccc(F)cc12 |
| 5.59 µM | CC[C@H](Nc1nc(N)nc(N)c1C#N)c1nn(-c2cccnc2)c2cc(Cl)ccc12 |

target: Phosphatidylinositol 4,5-bisphosphate 3-kinase catalytic subunit gamma isoform (Homo sapiens, UniProt P48736); experiment: Inhibition of PI3Kgamma (unknown origin) using PIP2 as substrate incubated for 1 hr in presence of ATP by ADP-Glo assay; conditions: not given
Sequence (P48736 whole entry, canonical isoform): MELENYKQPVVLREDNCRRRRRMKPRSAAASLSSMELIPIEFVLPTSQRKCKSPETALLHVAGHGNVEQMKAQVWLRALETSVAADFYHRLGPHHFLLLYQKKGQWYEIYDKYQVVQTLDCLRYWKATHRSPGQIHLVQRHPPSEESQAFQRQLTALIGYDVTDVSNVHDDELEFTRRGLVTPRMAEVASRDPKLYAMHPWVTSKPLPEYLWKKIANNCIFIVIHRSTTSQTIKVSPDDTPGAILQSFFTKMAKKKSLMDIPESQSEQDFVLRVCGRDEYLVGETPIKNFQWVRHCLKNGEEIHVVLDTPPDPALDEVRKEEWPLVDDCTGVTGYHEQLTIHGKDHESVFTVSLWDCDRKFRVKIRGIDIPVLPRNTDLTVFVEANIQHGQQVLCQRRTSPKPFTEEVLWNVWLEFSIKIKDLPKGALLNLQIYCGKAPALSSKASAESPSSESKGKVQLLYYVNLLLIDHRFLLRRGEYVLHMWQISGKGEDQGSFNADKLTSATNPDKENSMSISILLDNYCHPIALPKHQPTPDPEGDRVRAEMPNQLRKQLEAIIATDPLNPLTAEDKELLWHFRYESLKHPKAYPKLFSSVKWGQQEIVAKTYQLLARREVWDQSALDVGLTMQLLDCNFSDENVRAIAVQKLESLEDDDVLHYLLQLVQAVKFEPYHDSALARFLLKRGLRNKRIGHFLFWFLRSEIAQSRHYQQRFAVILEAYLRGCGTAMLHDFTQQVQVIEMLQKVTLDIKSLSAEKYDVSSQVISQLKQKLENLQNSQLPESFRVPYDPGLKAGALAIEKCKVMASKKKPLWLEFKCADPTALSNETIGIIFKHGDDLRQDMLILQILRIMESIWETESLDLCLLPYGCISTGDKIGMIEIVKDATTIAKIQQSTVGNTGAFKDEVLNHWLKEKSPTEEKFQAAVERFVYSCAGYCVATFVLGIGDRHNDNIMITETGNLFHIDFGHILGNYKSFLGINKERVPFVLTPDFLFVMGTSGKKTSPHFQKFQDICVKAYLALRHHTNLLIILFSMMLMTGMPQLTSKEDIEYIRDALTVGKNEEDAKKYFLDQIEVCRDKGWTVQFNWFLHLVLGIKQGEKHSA

| IC50 | Structure (SMILES) |
| --- | --- |
| > 1 µM | CC[C@H](Nc1nc(N)nc(N)c1C#N)c1nn(-c2cccnc2)c2cc(Cl)ccc12 |

system: HepG2; experiment: cells; conditions: Homo sapiens, HepG2, 72 h
Description: Antiproliferative activity against human HepG2 cells assessed as inhibition of cell growth incubated for 72 hrs by SRB assay

| IC50 | Structure (SMILES) |
| --- | --- |
| 15.1 µM | C[C@H](Nc1ncnc2[nH]cnc12)c1nn(-c2ccc(C#N)cc2)c2cc(F)ccc12 |
| 41.9 µM | C[C@H](Nc1ncnc2[nH]cnc12)c1nn(-c2cccnc2)c2ccc(F)cc12 |
| 4.77 µM | CC[C@H](Nc1nc(N)nc(N)c1C#N)c1nn(-c2cccnc2)c2cc(Cl)ccc12 |
